Measurements taken from publication PMC3297008, “Novel Marine Phenazines as Potential Cancer Chemopreventive and Anti-Inflammatory Agents” (Marine Drugs, 2012).
Read-outs that look alike come from different tables or passages of the source.

How the values were obtained:
[1] = tested on: NFκB; test: TNF-α-induced NFκB luciferase reporter assay in stably-transfected human embryonic kidney cells 293; format: cell-based; details: for IC50: human embryonic kidney cells 293 NFκB reporter, TNF-α 2 ng/mL, 6 h, read-out: IC50, inhibition of TNF-α-induced NFκB activity
Method: Activation of NFκB may promote cell proliferation or prevent cell death through apoptosis. Inhibition of NFκB signaling has potential application for the treatment or prevention of cancer; some inhibitors are known. […] […].
We employed human embryonic kidney cells 293 Panomic (Fremont, CA, USA) for monitoring changes occurring along the NFκB pathway. Stable constructed cells were seeded into sterile 96-well plate at 20 × 10^3 cells per well. Cells maintained in Dulbecco’s modified Eagle’s medium (DMEM) Invitrogen Co. (Carlsbad, CA, USA), supplemented with 10% FBS, 100 units/mL penicillin, 100 µg/mL streptomycin, 2 mM L-glutamine. After 48 h incubation, the medium was replaced and cells were treated with various concentration of test substances dissolved in PBS. TNF-α (Human, Recombinant, E. coli, Calbiochem, Gibbstown, NJ, USA) was used as an activator at a concentration of 2 ng/mL (0.14 nM). The plate was incubated for 6 h. Spent medium was discarded and the cells were washed once with PBS. Cells were lysed using 50 µL (for 96-well plate) Reporter Lysis Buffer from Promega, by incubating for 5 min on a shaker, and stored at −80 °C. The luciferase assay was performed using the Luc assay system from Promega (Madison, WI, USA). The gene product, luciferase enzyme, reacts with luciferase substrate, emitting light which was detected using a luminometer (LUMIstar Galaxy BMG). Data for NFκB constructs are expressed as IC50 values (i.e., concentration required to inhibit TNF-activated NFκB activity by 50%).

[2] = tested on: RAW 264.7 cells; test: Cell viability (SRB) of RAW 264.7 cells in the NO assay; format: cell-based; details: 50 µM
[3] = tested on: PGE2 production in LPS-induced RAW 264.7 cells; test: LPS-induced PGE2 production in RAW 264.7 cells (ELISA); format: cell-based; details: for IC50: read-out: PGE2 IC50; for inhibition at 50 µM: RAW264.7, read-out: PGE2 % inhibition (50 µM)
Method: RAW 264.7 cells (1 × 10^5 cells/well, 200 µL) were incubated in a 96-well culture plate in the presence of 5% CO2 at 37 °C for 24 h. The medium was changed to non-colored DMEM containing 5% FBS, and the cells were treated with various concentrations of compounds for 30 min followed by 1 μg/mL of LPS treatment for 24 h. Cell media were collected, diluted 18-times and used for measuring PGE2. Nunc-Immuno 96-well plates were coated with secondary antibody (goat anti-mouse IgG) affinity purified (Jackson Immuno Research Laboratories). Aliquots of cell media were added to the immune plate with primary PGE2 monoclonal antibody (Cayman Chemical) and a tracer PGE2-acetylcholinesterase (Cayman Chemical) and incubated overnight at room temperature in the dark. The next day, the wells were aspirated, washed, 200 µL of Elman’s reagent was added in each well, and incubated 2–5 h at 37 °C out of direct light until control wells reach an optical density 0.4–0.5. Gentle rotating/shaking was used to decrease the time required for color development. Absorbance was read at 412 nm. The PGE2 concentration of each sample was calculated from a PGE2 standard curve (PGE2 from Cayman Chemical). The percent inhibition as a function of the inhibitor concentration was graphed to determine the IC50 values (concentration at which there was 50% inhibition).

[4] = tested on: HL-60 cells; test: NIM-DAPI cell cycle analysis / apoptosis of HL-60 cells; format: cell-based; details: 24 h incubation, various concentrations
Method: Figure 3 NIM-DAPI cell cycle analysis of HL-60 cells. HL-60 cells (2 × 10^5 cells/well) were treated with different concentrations of the indicated compounds for 24 h. The media were discarded, and 4',6-diamidino-2-phenylindole solution (NIM-DAPI; Beckman Coulter) was added just before the measurement using a Cell Lab Quanta™ SC (Beckman Coulter) flow cytometer. NIM-DAPI-stained cells were analyzed after excitation. […] Results are representative of two experiments in triplicate.
HL-60 cells (2 × 10^5 cells/well) were treated with samples for 24 h. The media were discarded and nuclear isolation medium (4',6-diamidino-2-phenylindole, NIM-DAPI; Beckman Coulter) was added just before the measurement using a Cell Lab Quanta™ SC (Beckman Coulter) flow cytometer. NIM-DAPI-stained cells were analyzed after excitation.
HL-60 cells at a concentration of 2 × 10^6 cells/mL were incubated with testing phenazines at different concentrations for 24 h. The cells were fixed with 1% paraformaldehyde in PBS and treated with ethanol to permiabilize the cells. Positive and negative control cells were provided already fixed. The DNA labeling reaction was carried out at 22–24 °C overnight. This assay was run on a Cell Lab Quanta™ SC, Beckman Coulter flow cytometer equipped with a 488 nm Argon laser as the light source. Propidium Iodide (total cellular DNA) and Fluorescein (apoptotic cells) were used. Propidium Iodide (PI) fluoresces at about 623 nm and Fluorescein at 520 nm when excited at 488 nm. Following the manufacturer’s instructions, an APO-BRDU™ Kit (Phoenix Flow Systems, Inc.) with a two color TUNEL (Terminal deoxynucleotide transferase dUTP Nick End Labeling) capability for labeling DNA breaks and total cellular DNA to detect apoptotic cells was used.

[5] = tested on: NO production in LPS-induced RAW 264.7 cells; test: LPS-induced NO production in RAW 264.7 cells (Griess reagent); details: for NO % inhibition (50 µM): LPS-induced RAW 264.7 cells; for inhibition at 50 µM / IC50: Mus musculus; for inhibition at 50 µM: RAW264.7, read-out: NO % inhibition (50 µM), LPS-induced RAW 264.7 cells, 50 µM; for IC50: RAW264.7, read-out: NO IC50
Method: The amount of nitrite was measured using the Griess reagent to assess the NO production [47, 48]. […] The cells were treated with various concentrations of compounds dissolved in phenol-red free DMEM for 30 min followed by 1 μg/mL of LPS treatment for 24 h. […] The standard curve was created by using known concentrations of sodium nitrite.

[6] = Mus musculus, RAW264.7, LPS-induced RAW 264.7 cells
[7] = Mus musculus, LPS-induced RAW 264.7 cells

Row | SMILES | IC50 [1] [µM] | NO % cell survival [2] [%] | IC50 [3, 6] [µM] | inhibition at 50 µM [3, 7] [%] | accumulation of HL-60 cells in subG1 phase (apoptosis) [4] | NO % inhibition (50 µM) [5] [%] | inhibition at 50 µM [5] [%] | IC50 [5] [µM] | enhancement of NFκB inhibitory activity by bromination at position-2 ([1]; phenazine 1 compared with lavanducyanin) | IC50 ([3]; LPS-induced RAW 264.7 cells) [µM]
1 | CC1=C(Cn2c3cccc(=O)c-3nc3ccccc32)CCC(C)(C)C1 [Lavanducyanin 3, lavanducyanin] | 16.3 | 58.3 ± 4.6 | 0.63 ± 0.16 | 80.6 ± 18.4 | accumulated in the subG1 phase of the cell cycle | 97 ± 0.7 | > 90 | 8 ± 0.39 | – | –
2 | CC(C)=CCn1c2ccc(Br)c(=O)c-2nc2ccccc21 [Phenazine 2] | 24.2 | 56.0 ± 5.1 | 0.89 ± 0.22 | 86.9 ± 12.9 | accumulated in the subG1 phase of the cell cycle | 98.1 ± 0.5 | > 90 | 15.1 ± 2.7 | – | –
3 | CC1=C(Cn2c3ccc(Br)c(=O)c-3nc3ccccc32)CCC(C)(C)C1 [Phenazine 1] | 4.1 | 68.9 ± 3.8 | 7.5 | 72.5 ± 16.3 | accumulated in the subG1 phase of the cell cycle | 40.1 ± 5 | 40 | > 48.6 | approximately 4 fold | 7.15 ± 2.03
